Where “and” joins values, the source holds several entries; their conditions need not be identical. Equal entries are not always repeated.
Target: Sigma non-opioid intracellular receptor 1 (Cavia porcellus, UniProt Q60492)
Experiment: Binding Assay
Text: Binding assay using sigma receptors.

Chain of Sigma non-opioid intracellular receptor 1 (Q60492 whole entry): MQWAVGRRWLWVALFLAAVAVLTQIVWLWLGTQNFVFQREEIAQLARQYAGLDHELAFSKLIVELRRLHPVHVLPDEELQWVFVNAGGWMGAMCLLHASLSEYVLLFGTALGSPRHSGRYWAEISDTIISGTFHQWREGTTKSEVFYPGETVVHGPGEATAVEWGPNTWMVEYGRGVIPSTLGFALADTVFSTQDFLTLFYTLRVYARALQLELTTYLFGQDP

SMILES: C=C(CC)c1ccc2c(c1)sc(=O)n2CCCCN1CCCCC1 [6-(but-1-en-2-yl)-3-[4-(piperidin-1-yl)butyl]-2,3-dihydro-1,3-benzothiazol-2-one, 12]
- Ki: 2.9 nM and 13 nM

SMILES: CCCc1ccc2c(c1)sc(=O)n2CCN1C[C@]2(C)CCC[C@]2(C)C1 [3-{2-[(3aR,6aS)-3a,6a-dimethyl-octahydrocyclopenta[c]pyrrol-2-yl]ethyl}-6-propyl-2,3-dihydro-1,3-benzothiazol-2-one, 13]
- Ki: > 1000 nM

From BindingDB's records for doi:10.1007/s00044-005-0131-1 (Universite De Lille, 2005)
